From patent US20240115270A1, “DIRECT ORAL ANTICOAGULANT-ELUTING MEDICAL DEVICE” (BOSTON SCIENTIFIC SCIMED, INC., priority 2021, published 2024)

Tests used:
bovine blood = assay: Thrombogenicity of spray-coated Watchman device in bovine blood; details: bovine blood ACT=210, 15 minutes
Experimental: A drug/polymer solution of PVDF-HFP and DOAC was prepared in 80/20 acetone/DMSO (wt/wt). The PVDF-HFP to drug ratio was 60/40 (wt/wt) and the solution solids was 2%. The DOAC drug evaluated was rivaroxaban (Xarelto). A 24 mm diameter Watchman device was spray-coated with the polymer/drug solution at a flow rate of 10 ml/hr to apply a basecoat. The device was dried for 30 min at 125° C. in a convection oven and then spray-coated with a topcoat solution (2% PVDF-HFP in 100% acetone), at a flow rate of 10 ml/hr. The total basecoat weight was 38.8 mg and the topcoat weight was 18.7 mg. The spray-coated device was then placed in PBS/Tween solution at 37° C. for 11 days to simulate in vivo drug elution. The device was then rinsed with DI water and dried. A PVDF-HFP-only coated control device was also subjected to the same incubation and rinsing protocol. The DOAC-eluting device and the control device were placed in the same container of bovine blood (ACT=210) on an orbital shaker incubator at 37° C. for 15 minutes to assess the thrombogenicity of the two devices.
A solution of PVDF-HFP and DOAC was prepared in 40/60 acetone/DMF (wt/wt). The PVDF-HFP to drug ratio was 70/30 (wt/wt) and the solution solids was 4%. The DOAC drug evaluated was apixaban. […]

heparinized bovine blood = assay: Clot formation on dip-coated PET fabric disks in heparinized bovine blood; details: PVDF-HFP/drug 90/10 dip-coated 15 mm PET fabric disks, ACT about 190 seconds, 37° C., various time points, images FIG. 5
Experimental: A solution of PVDF-HFP and DOAC was prepared in 80/20 acetone/DMSO (wt/wt). The PVDF-HFP to drug ratio was 90/10 (wt/wt) and the solution solids was 0.7%. The DOAC drugs evaluated were apixaban (Eliquis®), rivaroxaban (Xarelto®) and edoxaban (Savaysa®) 15 mm diameter polyethylene terephthalate (PET) fabric disks were dip coated into the polymer/drug solution at a dip speed of 5 mm/sec. The coated disks were dried for 30 min at 125° C. in a convection oven. The drug coated disks and PVDF-HFP only control disks were placed in cups containing heparinized bovine blood adjusted to an active clotting time (ACT) of about 190 seconds using protamine. The cups were placed on an orbital shaker incubator at 37° C. and disks were removed at various time points and imaged. The disks were then dried and weighed to determine clot weight. […] The clot weights provided in FIG. 6 verify the minimal amount of thrombus formed on the DOAC treated fabric.

| Compound | thrombus formation on device versus PVDF-HFP-only coated control device (bovine blood; PVDF-HFP/drug 60/40 basecoat plus topcoat on 24 mm Watchman, after 11 days in PBS/Tween at 37° C., FIGS. 9A-9D) | thrombus (clots) compared to the PVDF-HFP coated control (heparinized bovine blood) | thrombus formation on partially coated (masked) device (bovine blood; PVDF-HFP/drug 70/30 basecoat plus topcoat, proximal face only, 24 mm Watchman, after 7 days in PBS/Tween at 37° C., FIG. 10B) |
| --- | --- | --- | --- |
| O=C(NC[C@H]1CN(c2ccc(N3CCOCC3=O)cc2)C(=O)O1)c1ccc(Cl)s1 [rivaroxaban] | inhibited thrombus formation on the proximal face of the device to a greater degree than did the control device | significantly less thrombus | – |
| COc1ccc(-n2nc(C(N)=O)c3c2C(=O)N(c2ccc(N4CCCCC4=O)cc2)CC3)cc1 [apixaban] | – | significantly less thrombus | inhibited thrombus formation only on the proximal face of the device |
